# Laboratory results taken from patent US20250188102A1, “TRIAZINE COMPOUND, INTERMEDIATE THEREOF, PREPARATION METHOD THEREFOR AND USE THEREOF” (priority 2022, published 2025).
# Where two headings read alike, the source gives them in different places.
# Legend:
# in vitro [1] = type: cell-based; conditions: human
# Experimental: (§1) Nine cell lines originated from different human tissues (Table 2) are selected to evaluate the cytotoxicity of the tested compounds. Sorafenib or Taxol are used as cytotoxic control compounds. The cells and compounds are added to the 96-well test plate. Cells are cultured in culture medium containing 10% FBS, 5% CO2 and 37° C. for 3 days, and then cell viability was detected by CellTiter-Glo reagent. The raw data are used for compound cytotoxicity calculations. The dose-response curves of the compounds are analyzed by GraphPad Prism software and CC50 values are calculated. The compound will be tested at 8 concentration points, 3-fold series dilution, and 3-compound pores.
# in vitro [2] = type: cell-based; conditions: human; remark: listed apart in the source
# Experimental: as §1
# in vitro [3] = type: cell-based; conditions: human; remark: listed apart in the source
# Experimental: as §1
# in vitro [4] = type: cell-based; conditions: human; remark: listed apart in the source
# Experimental: as §1
# in vitro [5] = type: cell-based; conditions: human; remark: listed apart in the source
# Experimental: as §1
# in vivo = conditions: male, Sprague-Dawley, rat; for AUC(0-inf): AUC0-∞; for half-life: T1/2
# MERS Mpro protease = MERS Mpro protease (Middle East respiratory syndrome-related coronavirus (isolate United Kingdom/H123990006/2012) (MERS-CoV) (Betacoronavirus England 1), UniProt K9N7C7); experiment: biochemical
# Chain of MERS Mpro protease (K9N7C7 3248-3553 limits assumed): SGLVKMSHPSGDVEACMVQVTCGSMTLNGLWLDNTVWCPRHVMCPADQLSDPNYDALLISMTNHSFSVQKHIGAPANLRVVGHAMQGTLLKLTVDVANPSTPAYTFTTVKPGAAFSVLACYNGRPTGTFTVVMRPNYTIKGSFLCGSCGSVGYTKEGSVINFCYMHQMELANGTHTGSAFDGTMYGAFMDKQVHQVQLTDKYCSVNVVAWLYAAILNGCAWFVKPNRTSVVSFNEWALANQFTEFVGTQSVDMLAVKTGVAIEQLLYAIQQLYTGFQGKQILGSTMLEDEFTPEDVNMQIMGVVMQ
# in vitro [6] = type: cell-based; conditions: human; remark: listed apart in the source
# Experimental: as §1
# in vitro [7] = type: cell-based; conditions: human; remark: listed apart in the source
# Experimental: as §1
# in vitro [8] = type: cell-based; conditions: human; remark: listed apart in the source
# Experimental: as §1
# in vitro [9] = type: cell-based; conditions: human; remark: listed apart in the source
# Experimental: as §1
# in vitro [10] = type: in vitro ADME; conditions: rat, hepatocytes
# in vitro [11] = type: in vitro ADME, people; conditions: human, hepatocytes
# NL63 Mpro protease = NL63 Mpro protease (Human coronavirus NL63 (HCoV-NL63), UniProt P0C6X5); experiment: Mpro enzymatic assay, other human coronaviruses: NL63; type: biochemical; conditions: read-out: Enzymatic Determination of IC50 of compound by Mpro, NL63
# Chain of NL63 Mpro protease (P0C6X5 2940-3242 limits assumed): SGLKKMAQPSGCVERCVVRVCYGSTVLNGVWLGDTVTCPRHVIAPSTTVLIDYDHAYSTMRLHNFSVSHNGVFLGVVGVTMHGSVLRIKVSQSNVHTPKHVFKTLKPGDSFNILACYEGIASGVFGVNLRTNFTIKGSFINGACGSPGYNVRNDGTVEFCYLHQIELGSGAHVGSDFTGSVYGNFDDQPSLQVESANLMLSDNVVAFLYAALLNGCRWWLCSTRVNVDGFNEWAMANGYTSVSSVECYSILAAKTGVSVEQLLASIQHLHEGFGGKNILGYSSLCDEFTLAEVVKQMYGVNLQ
# HKU1 Mpro protease = HKU1 Mpro protease (Human coronavirus HKU1 (isolate N1) (HCoV-HKU1), UniProt P0C6X2); type: biochemical; conditions: read-out: Enzymatic Determination of IC50 of compound by Mpro, HKU1
# Chain of HKU1 Mpro protease (P0C6X2 3335-3637 limits assumed): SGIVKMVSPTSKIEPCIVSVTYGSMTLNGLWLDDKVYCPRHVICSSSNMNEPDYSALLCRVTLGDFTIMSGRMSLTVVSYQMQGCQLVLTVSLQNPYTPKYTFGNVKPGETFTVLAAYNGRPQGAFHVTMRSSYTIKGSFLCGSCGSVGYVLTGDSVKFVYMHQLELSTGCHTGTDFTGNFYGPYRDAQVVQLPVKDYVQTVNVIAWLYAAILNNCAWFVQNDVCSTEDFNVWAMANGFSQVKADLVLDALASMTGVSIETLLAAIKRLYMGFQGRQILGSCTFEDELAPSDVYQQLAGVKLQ
# SARS-CoV-2 = conditions: read-out: viral inhibitory activity EC50, cited from earlier work
# in vitro [12] = conditions: human
# SARS-CoV-2 strain = experiment: microbe, parasite or virus in culture; conditions: Severe acute respiratory syndrome coronavirus 2, read-out: EC50 of SARS-CoV-2 strain
# [13] = liver microsomes; rat
# in vitro [14] = conditions: rat, microsomes
# [15] = rat, stated before the oral figures (intravenous per Table 11)
# [16] = CCRF-CEM, 3 days, read-out: CC50
# [17] = Colo-205, 3 days, read-out: CC50
structure (smiles),measurement,setting,value
Cn1cnc(Cn2c(=O)[nH]/c(=N\c3cc4nn(C)cc4cc3Cl)n(Cc3cc(F)c(F)cc3F)c2=O)n1 [CVL201],CC50,in vitro [1],> 100 µM
same,CC50,in vitro [2],> 100 µM
same,CC50,in vitro [3],> 100 µM
same,CC50,Huh7 cells,>1 microns
same,CC50,in vitro [4],> 100 µM
same,CC50,in vitro [5],> 100 µM
same,AUC(0-inf),"in vivo; po, 5 mg/kg",53900 ng·h/mL
same,Cmax,"in vivo; po, 5 mg/kg",4520 ng/mL
same,half-life,"in vivo; po, 5 mg/kg",2.89 h
same,Tmax,"in vivo; po, 5 mg/kg",4.67 h
same,IC50,MERS Mpro protease,4960 µM
same,CC50,in vitro [6],> 100 µM
same,CC50,in vitro [7],> 100 µM
same,CC50,in vitro [8],> 100 µM
same,CC50,in vitro [9],> 100 µM
[2H]C([2H])([2H])n1cnc(Cn2c(=O)[nH]/c(=N\c3cc4cn(C)nc4cc3Cl)n(Cc3cc(F)c(F)cc3F)c2=O)n1 [Compound I-2],half-life at 0.5 μM,in vitro [10],89 h
same,AUC compared with S-217622,"rat, after oral administration",144%
same,Cmax compared with S-217622,"rat, after oral administration",145%
same,AUC compared with S-217622,[15],198%
same,Cmax compared with S-217622,[15],125%
same,T1/2 compared with S-217622,[15],124%
same,AUC(0-inf),"in vivo; iv, 0.5 mg/kg, SD rat",7940 ng·h/mL
same,Cmax,"in vivo; iv, 0.5 mg/kg, SD rat",2880 ng/mL
same,half-life,"in vivo; iv, 0.5 mg/kg",3.36 h
same,Tmax,"in vivo; iv, 0.5 mg/kg, SD rat",0.03 h
same,AUC(0-inf),"in vivo; po, 5 mg/kg, SD rat",65300 ng·h/mL
same,Cmax,"in vivo; po, 5 mg/kg, SD rat",6020 ng/mL
same,half-life,"in vivo; po, 5 mg/kg",3.04 h
same,Tmax,"in vivo; po, 5 mg/kg, SD rat",2.33 h
[2H]C([2H])(c1ncn(C)n1)n1c(=O)nc(Nc2cc3cn(C)nc3cc2Cl)n(Cc2cc(F)c(F)cc2F)c1=O [Compound I-3],half-life at 0.5 μM,in vitro [11],204 h
same,half-life at 0.5 μM,in vitro [10],8.28 h
[2H]C([2H])([2H])n1cc2cc(Nc3nc(=O)n(Cc4ncn(C)n4)c(=O)n3Cc3cc(F)c(F)cc3F)c(Cl)cc2n1 [Compound I-5],half-life at 0.5 μM,in vitro [11],29.9 h
[2H]C([2H])([2H])n1cnc(Cn2c(=O)n(COC(=O)OC(C)C)/c(=N\c3cc4cn(C)nc4cc3Cl)n(Cc3cc(F)c(F)cc3F)c2=O)n1 [Compound I-19],AUC(0-inf),"in vivo; po, 5 mg/kg, SD rat",70900 ng·h/mL
same,Cmax,"in vivo; po, 5 mg/kg, SD rat",6180 ng/mL
same,half-life,"in vivo; po, 5 mg/kg",2.91 h
same,Tmax,"in vivo; po, 5 mg/kg, SD rat",3.33 h
[2H]C([2H])([2H])n1cnc(Cn2c(=O)nc(Nc3cc4cn(C([2H])([2H])[2H])nc4cc3Cl)n(Cc3cc(F)c(F)cc3F)c2=O)n1 [Compound I-24],AUC(0-inf),"in vivo; po, 5 mg/kg, SD rat",58300 ng·h/mL
same,Cmax,"in vivo; po, 5 mg/kg, SD rat",5210 ng/mL
same,half-life,"in vivo; po, 5 mg/kg",3.51 h
same,Tmax,"in vivo; po, 5 mg/kg, SD rat",4 h
O=c1nc(NO)ccn1[C@@H]1O[C@H](CO)[C@@H](O)[C@H]1O [EIDD-1931],CC50,Huh7 cells,>10 microns
CC(C)C[C@H](NC(=O)OCc1ccccc1)C(=O)N[C@@H](CC1CCNC1=O)C(O)S(=O)(=O)O (some centres unmarked) [GC-376],IC50,NL63 Mpro protease,0.107 µM
same,IC50,HKU1 Mpro protease,0.022 µM
CC(C)(C)[C@H](NC(=O)C(F)(F)F)C(=O)N1C[C@H]2[C@@H]([C@H]1C(=O)N[C@H](C#N)C[C@@H]1CCNC1=O)C2(C)C [PF-07321332],EC50,SARS-CoV-2; A549 cells expressing ACE2 protein,0.056 µM
same,EC50,SARS-CoV-2; HeLa cells expressing ACE2 protein,0.099 µM
same,EC50,SARS-CoV-2; human airway epithelial cells,0.062 µM
CC(=O)O[C@H]1C(=O)[C@@]2(C)[C@H]([C@H](OC(=O)c3ccccc3)[C@]3(O)C[C@H](OC(=O)[C@H](O)[C@@H](NC(=O)c4ccccc4)c4ccccc4)C(C)=C1C3(C)C)[C@]1(OC(C)=O)CO[C@@H]1C[C@@H]2O [Pacitaxel],CC50,"in vitro [2]; Molt-4, 3 days, read-out: CC50",0.0027 µM
same,CC50,"in vitro [5]; HIHeLa, 3 days, read-out: CC50",0.02 µM
same,CC50,"in vitro [6]; A375, 3 days, read-out: CC50",0.0089 µM
same,CC50,in vitro [8]; [16],0.0034 µM
same,CC50,"in vitro [9]; HEp2, 3 days, read-out: CC50",0.03 µM
CCC(CC)COC(=O)[C@H](C)N[P@](=O)(OC[C@H]1O[C@@](C#N)(c2ccc3c(N)ncnn23)[C@H](O)[C@@H]1O)Oc1ccccc1 [Remdesivir],CC50,Huh7 cells,>1 microns
"C=C(C)[C@H]1Cc2c(ccc3c2O[C@@H]2COc4cc(OC)c(OC)cc4[C@@H]2C3=O)O1 [Rotenone, reference compound]",ratio (CC50 Glu/CC50 Gal),HepG2 cells; human,91.7
same,CC50,in vitro [12]; galactose culture HepG2 CC50,0.03 µM
same,CC50,in vitro [12]; glucose culture HepG2 CC50,2.33 µM
O=C(O)/C=C/C(=O)O.[2H]C([2H])([2H])n1cnc(Cn2c(=O)[nH]/c(=N\c3cc4cn(C)nc4cc3Cl)n(Cc3cc(F)c(F)cc3F)c2=O)n1 [SHEN211],CC50,"in vitro [1]; MRC-5, 3 days, read-out: CC50",> 100 µM
same,mitochondrial toxicity to human HepG2 cells,HepG2 cells,more than 200 μM
same,difference between the CC50 and EC50,HepG2 cells; human,more than 476 times
same,CC50,"in vitro [2]; Molt-4, 3 days, read-out: CC50",> 100 µM
same,EC50,SARS-CoV-2 strain,0.084 to 0.21 µM
same,CC50,"in vitro [3]; HEK293, 3 days, read-out: CC50",> 100 µM
same,CC50,Huh7 cells,>1 microns
same,CC50,in vitro [4]; [17],> 100 µM
same,CC50,in vitro [12]; galactose culture HepG2 CC50,206 µM
same,CC50,in vitro [12]; glucose culture HepG2 CC50,202 µM
same,CC50,"in vitro [5]; HIHeLa, 3 days, read-out: CC50",> 100 µM
same,AUC(0-inf),"in vivo; po, 5 mg/kg, SD rat",45500 ng·h/mL
same,Cmax,"in vivo; po, 5 mg/kg, SD rat",4710 ng/mL
same,half-life,"in vivo; po, 5 mg/kg",3.22 h
same,Tmax,"in vivo; po, 5 mg/kg, SD rat",2 h
same,CC50,"in vitro [6]; A375, 3 days, read-out: CC50",> 100 µM
same,CC50,"in vitro [7]; HepG2, 3 days, read-out: CC50",> 100 µM
same,CC50,in vitro [8]; [16],> 100 µM
same,CC50,"in vitro [9]; HEp2, 3 days, read-out: CC50",> 100 µM
[2H]C([2H])([2H])n1cnc(Cn2c(=O)[nH]/c(=N\c3cc4cn(C)nc4cc3Cl)n(Cc3cc(F)c(F)cc3F)c2=O)n1 [SHEN212],AUC0-∞,"SD rat, PO, 5.0 mg/kg",62126.14 ng·h/mL
same,Tmax,"SD rat, PO, 5.0 mg/kg",3.67 h
same,AUC compared with S-217 fumaric acid eutectic group,"rat, PO",115%
same,AUC compared with S-217622 fumaric acid coproduct combined with niacinamide group,"rat, PO",124%
same,Cmax compared with S-217 fumaric acid eutectic group,"rat, PO",132%
same,Cmax compared with S-217622 fumaric acid coproduct combined with niacinamide group,"rat, PO",123%
same,T1/2 compared with S-217622 fumaric acid coproduct combined with niacinamide group,"rat, PO",121%
CNC(=O)c1cc(Oc2ccc(NC(=O)Nc3ccc(Cl)c(C(F)(F)F)c3)cc2)ccn1 [Sorafenib],CC50,"in vitro [1]; MRC-5, 3 days, read-out: CC50",13.8 µM
same,CC50,"in vitro [3]; HEK293, 3 days, read-out: CC50",5.58 µM
same,CC50,in vitro [4]; [17],8.72 µM
same,CC50,"in vitro [7]; HepG2, 3 days, read-out: CC50",5.32 µM
C[C@]12CC[C@H]3[C@@H](CCC4=CC(=O)CC[C@@]43C)[C@@H]1CC[C@@H]2O [Testosterone],Cl,[13],3.28 L/h/kg
same,Cla,[13],6112.8 µL/min/mg
same,Clape,[13],660.186 L/h/kg
same,half-life,in vitro [14],36 s
